Results published in ChEMBL document CHEMBL1132810, “Inhibition of vertebrate squalene epoxidase by isoprenyl gallates and phenylalkyl gallates” (Bioorg Med Chem Lett, 2000).

Target: Squalene monooxygenase (Rattus norvegicus, UniProt P52020)
Assay: Compound was evaluated for its inhibitory activity against recombinant rat SE(squalene epoxidase)

Sequence of Squalene monooxygenase (P52020 whole entry): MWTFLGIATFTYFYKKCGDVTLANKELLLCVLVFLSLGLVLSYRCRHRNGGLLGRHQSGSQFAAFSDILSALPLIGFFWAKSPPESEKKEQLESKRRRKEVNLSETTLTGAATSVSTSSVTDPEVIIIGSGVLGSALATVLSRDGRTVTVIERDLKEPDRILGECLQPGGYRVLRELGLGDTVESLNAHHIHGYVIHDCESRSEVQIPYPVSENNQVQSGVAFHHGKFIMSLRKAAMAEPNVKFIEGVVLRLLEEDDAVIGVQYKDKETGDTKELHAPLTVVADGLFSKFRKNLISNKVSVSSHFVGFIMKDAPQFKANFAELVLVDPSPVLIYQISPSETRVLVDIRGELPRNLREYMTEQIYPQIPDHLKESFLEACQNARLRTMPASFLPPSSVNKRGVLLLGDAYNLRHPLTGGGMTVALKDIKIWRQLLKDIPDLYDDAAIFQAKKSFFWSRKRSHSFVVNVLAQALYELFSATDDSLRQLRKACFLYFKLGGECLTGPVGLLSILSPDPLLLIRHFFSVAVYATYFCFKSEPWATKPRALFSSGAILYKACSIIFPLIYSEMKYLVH

| IC50 [µM] | SMILES |
| --- | --- |
| 5.1 | CC(C)=CCC/C(C)=C/CC/C(C)=C/CC/C=C(\C)CC/C=C(\C)CCCOC(=O)c1cc(O)c(O)c(O)c1 |
| 11.9 | O=C(OCCCCCCc1ccccc1)c1cc(O)c(O)c(O)c1 |
| 15.3 | O=C(OCCCCCCCCCCc1ccccc1)c1cc(O)c(O)c(O)c1 |
| 61.3 | O=C(OCCCCc1ccccc1)c1cc(O)c(O)c(O)c1 |
| 0.061 | CCCCCCCCCCCCOC(=O)c1cc(O)c(O)c(O)c1 [DODECYL GALLATE] |
| 12.5 | CC(C)=CCC/C(C)=C/COC(=O)c1cc(O)c(O)c(O)c1 [Geranyl gallate] |

Continued, compound first:

| SMILES | IC50 [µM] |
| --- | --- |
| O=C(OCCCCCCCCc1ccccc1)c1cc(O)c(O)c(O)c1 | 12.5 |
| CC(C)=CCC/C(C)=C/CC/C(C)=C/CC/C(C)=C/COC(=O)c1cc(O)c(O)c(O)c1 | 4.5 |
| CC(C)=CCC/C(C)=C/CC/C(C)=C/COC(=O)c1cc(O)c(O)c(O)c1 | 1.5 |
| O=C(O[C@@H]1Cc2c(O)cc(O)cc2O[C@@H]1c1cc(O)c(O)c(O)c1)c1cc(O)c(O)c(O)c1 [EPIGALOCATECHIN GALLATE] | 0.69 |
